Data taken from ChEMBL document CHEMBL1201862, “PubChem BioAssay data set” (2004).
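How tested: cells in 96-well plates exposed to compound for 48 hours at five concentrations. Here, GI50 denotes the concentration required for 50% inhibition of growth.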 Activity calls are given as the source filed them. No stated cut-off is given here; in the data, active = GI50 up to about 1.1 µM and inactive = higher.

Experiments:
Assay in all cases: NCI tumour cell line growth inhibition, 48 h
[1] = tested on: ACHN
[2] = tested on: COLO 205
[3] = tested on: EKVX
[4] = tested on: HOP-92
[5] = tested on: IGROV-1
[6] = tested on: NCI-H460
[7] = tested on: NCI-H522
[8] = tested on: OVCAR-8
[9] = tested on: SF-295
[10] = tested on: SK-OV-3
[11] = tested on: SNB-19
[12] = tested on: SNB-75
[13] = tested on: SW-620
[14] = tested on: U-251
[15] = tested on: UACC-62
[16] = tested on: CCRF-CEM
[17] = tested on: RPMI-8226
[18] = tested on: SK-MEL-2
[19] = tested on: SR
[20] = tested on: MCF7

Measured: GI50

O=C(O)C1CCC(=O)N1C(=O)COc1cc(Cl)c(Cl)cc1Cl (centres undefined)
inactive: [1] > 100 µM | [2] > 100 µM | [3] > 100 µM | [4] 82 µM | [5] > 100 µM | [6] > 100 µM | [7] > 100 µM | [8] > 100 µM | [9] > 100 µM | [10] > 100 µM | [11] > 100 µM | [12] 40.6 µM | [13] > 100 µM | [14] > 100 µM | [15] > 100 µM

CCOC(=O)C(C(=O)OCC)c1cc(-c2cc3ccccc3o2)oc(=O)c1C#N
inactive: [1] 34.6 µM | [16] 29.6 µM | [2] 20.5 µM | [3] 39.7 µM | [4] 3.41 µM | [5] 24.9 µM | [6] 30.2 µM | [8] 21.4 µM | [17] 35.6 µM | [9] 22.2 µM | [18] 19.8 µM | [11] 37.3 µM | [12] 26.2 µM | [19] 24.5 µM | [13] 23.1 µM | [14] 16.2 µM

CCOC(=O)C(OP(=O)(OCC)OCC)C(F)(F)F (centres undefined)
inactive: [1] > 100 µM | [16] > 100 µM | [3] > 100 µM | [20] > 100 µM | [6] > 100 µM | [7] > 100 µM | [17] > 100 µM | [18] > 100 µM | [10] > 100 µM | [11] > 100 µM | [12] > 100 µM | [19] > 100 µM | [14] > 100 µM | [15] > 100 µM

N#Cc1ccccc1NC(=O)C(=O)C(C(=O)c1ccccc1F)C1OC(=O)c2ccccc21 (centres undefined)
inactive: [1] 80.7 µM | [16] 15.1 µM | [2] 37.7 µM | [3] 45.5 µM | [4] > 100 µM | [5] 86.1 µM | [6] 41.1 µM | [7] 21 µM | [8] 40.7 µM | [17] 25 µM | [9] 55.1 µM | [18] 24.1 µM | [10] 41.3 µM | [11] 32.4 µM | [12] 38.4 µM | [19] 17.1 µM | [13] > 100 µM | [14] 15 µM | [15] 41 µM

Clc1ccccc1/C=C/c1cscn1
inactive: [1] > 100 µM | [16] > 100 µM | [3] > 100 µM | [6] > 100 µM | [7] > 100 µM | [17] > 100 µM | [18] > 100 µM | [10] > 100 µM | [11] > 100 µM | [12] > 100 µM | [19] > 100 µM | [14] > 100 µM | [15] > 100 µM

Cc1cccc(C(O)c2cccnc2)c1O (centres undefined)
inactive: [1] > 100 µM | [16] > 100 µM | [2] > 100 µM | [3] > 100 µM | [5] > 100 µM | [20] > 100 µM | [6] > 100 µM | [7] > 100 µM | [8] > 100 µM | [17] > 100 µM | [9] > 100 µM | [11] > 100 µM | [12] > 100 µM | [19] > 100 µM | [13] > 100 µM | [14] > 100 µM | [15] 35.7 µM
